Test results reported in US9051322B2, “Process for the production of a pemetrexed salt” (SCINOPHARM TAIWAN, LTD., priority 2011, dated 2015).
Structures can show the parent of a compound that is named as a salt.

Assay: Stability of pemetrexed disodium in sodium hydroxide at different temperature (impurity content by HPLC)
Format: physicochemical
Protocol: In comparison with the prior art, the embodiments of the present invention have the following advantages: • 1) The reaction of the compound of formula (II) or salt thereof with an aqueous basic solution is preferably conducted at a low temperature, e.g., no more than 10° C., in comparison with the room temperature of WO2001014379 and WO1999016742. As shown in Table 1 shown below, the inventors of the present invention unexpectedly discovered that impurities can be reduced or minimized by conducting the reaction at a low temperature. As noted above, after the reaction step, the low temperature is preferably maintained during the steps of adjusting pH and adding anti-solvent. • 2) The anti-solvent is preferably added before adjusting the pH value. The inventors unexpectedly discovered that by doing so, the mixture can be diluted by the addition of the anti-solvent before the adjusting step, therefore minimizing local heat effect and formation of impurities. In comparison, WO2001014379 discloses adjusting the pH value before the addition of an anti-solvent. • 3) In accordance with the present invention, the compound of formula (II) can be converted to a pemetrexed salt (e.g., at a pH of 6.5 to 9.5). In contrast, the process of WO1999016472 comprises making pemetrexed free form first (at a pH of about 3), and then converting the free form to a salt (at a pH of about 6.5 to 9.5). The process of the present invention is simpler and more convenient. • 4) In accordance with an embodiment of the present invention, the crude pemetrexed salt may be crystallized at a room temperature; whereas in accordance with WO2001014379, the crystallizing is conducted at about 70° C. The cooling, heating, and adjusting pH steps of WO2001014379 may be avoided in accordance with the embodiment of the present invention. The process of the present invention can save workup procedures and has better control of impurity.

## Nc1nc2[nH]cc(CCc3ccc(C(=O)N[C@@H](CCC(=O)O)C(=O)O)cc3)c2c(=O)[nH]1 [pemetrexed disodium, L-Glutamic acid, N-[4-[2-(2-amino-4,7-dihydro-4-oxo-1H-pyrrolo[2,3-d]pyrimidin-5-yl)ethyl]benzoyl]-, disodium salt]
5 °C, 1 hr
  content of impurity based on HPLC spectra's % Area: 0.012%
5 °C, 2 hr
  content of impurity based on HPLC spectra's % Area: 0.013%
5 °C, 4 h
  content of impurity based on HPLC spectra's % Area: 0.035%
5 °C, 6 hr
  content of impurity based on HPLC spectra's % Area: 0.066%
10 °C, 1 hr
  content of impurity based on HPLC spectra's % Area: 0.051%
10 °C, 2 hr
  content of impurity based on HPLC spectra's % Area: 0.053%
10 °C, 4 h
  content of impurity based on HPLC spectra's % Area: 0.070%
10 °C, 6 hr
  content of impurity based on HPLC spectra's % Area: 0.075%
15 °C, 1 hr
  content of impurity based on HPLC spectra's % Area: 0.076%
15 °C, 2 hr
  content of impurity based on HPLC spectra's % Area: 0.085%
15 °C, 4 h
  content of impurity based on HPLC spectra's % Area: 0.110%
15 °C, 6 hr
  content of impurity based on HPLC spectra's % Area: 0.123%
